Values belong to the compound of their own block, whether it stands above or below them.
Key:
[1] = Example 3: stability of black currant extract anthocyanosides, 4 hours at 37° C., pH 7.0, with/without DHLA, GSH or L-cysteine (HPLC); assay type: physicochemical; conditions: for Peak Area, Fresh solution: black currant extract 60 mg/100 ml buffer pH 7.0, fresh sample; for % left, DHLA 20 mg / % left, GSH 20 mg / % left, L-cysteine 20 mg / Peak Area, DHLA 20 mg / Peak Area, GSH 20 mg / Peak Area, L-cysteine 20 mg / % left, Blank / Peak Area, Blank: pH 7.0, 37° C., 4 hours; for % left, Blank / Peak Area, Blank: unprotected
Procedure: (§1) Sample a) 60 mg black currant extract [35% anthocyanosides] (0.037 mmol anthocyanosides expressed as cyanidin-3-O-rutinoside) were added to a 100 ml flask and filled to volume with sodium phosphate buffer (5% [w/w], pH=7.0) and stirred until dissolution was complete. A 1 ml sample was taken immediately, acidified with formic acid to pH=1.0 and analyzed by HPLC for the content of anthocyanosides (Fresh Sample). The remaining solution was kept for 4 hours at 37° C. (water bath) with stirring. Thereafter samples (Blank sample), representing unprotected degradation, were taken and acidified.
(§2) Sample b) 20 mg reduced L-glutathione (0.065 mmol) were added to a 100 ml flask with 60 ml sodium phosphate buffer (5% [w/w], pH=7.0) and stirred until dissolution was complete. 60 mg black currant extract [35% anthocyanosides] (0.037 mmol anthocyanosides expressed as cyanidin-3-O-rutinoside) were then added and the flask was filled to volume with sodium phosphate buffer (5% [w/w], pH=7.0) and kept for 4 hours at 37° C. (water bath) with stirring.
as §2, with “Sample c)” for “Sample b)”, “mg dihydrolipoic acid (0.096” for “mg reduced L-glutathione (0.065”, “was completed.” for “was complete.”, “were” for “were then”, “added to” for “added and”, “the flask,” for “the flask was”
as §2, with “Sample d)” for “Sample b)”, “mg L-cysteine acid (0.165” for “mg reduced L-glutathione (0.065”, “were” for “were then”, “added to” for “added and”, “the flask,” for “the flask was”
After 4 hours samples were taken, acidified immediately with formic acid to pH=1.0 and analyzed by HPLC for the content of anthocyanosides. Degradation is expressed as decrease in peak area of individual peaks (calculated as % left after 4 hours).
(§3) Samples were prepared as outlined below in HPLC Analytical Method. Test stability samples were immediately acidified (to block degradation) and injected undiluted following the detailed description provided below.
HPLC Analytical Method (Materials, Instruments and Methods): […]

[2] = Example 5: degradation over time of black currant anthocyanosides at 37° C., pH 7.0, with/without GSH (HPLC); assay type: physicochemical; conditions: pH 7.0, 37° C.; for %-residual anthocyanosides (% left): 4 hours
Procedure: as §1, with “flask,” for “flask and”, “anthocyanosides.” for “anthocyanosides (Fresh Sample).”, “kept” for “kept for 4 hours”, “stirring and 1 ml” for “stirring. Thereafter”, “Samples),” for “sample),”, “every 15 minutes. The samples were analyzed for selected anthocyanosides by HPLC.” for “and acidified.”
as §2, with “added,” for “then added and”, “for” for “for 4 hours”, “stirring. Every 15 minutes 1 ml samples were taken and analyzed for selected anthocyanosides by HPLC.” for “stirring.”
as §3

[3] = GSH protected sample (20 mg), 0:00 h
[4] = GSH protected sample (20 mg), 0:15 h
[5] = GSH protected sample (20 mg), 0:45 h
[6] = GSH protected sample (20 mg), 1:00 h
[7] = GSH protected sample (20 mg), 1:15 h
[8] = GSH protected sample (20 mg), 1:45 h
[9] = GSH protected sample (20 mg), 2:00 h
[10] = GSH protected sample (20 mg), 2:15 h
[11] = GSH protected sample (20 mg), 2:45 h
[12] = GSH protected sample (20 mg), 3:00 h
[13] = GSH protected sample (20 mg), 3:15 h
[14] = GSH protected sample (20 mg), 3:45 h
[15] = GSH protected sample (20 mg), 4:00 h
[16] = GSH protected sample (20 mg), 4:15 h

- Peak Area, Fresh solution [1]: 3539
- % left, DHLA 20 mg [1]: 51.1%
- % left, GSH 20 mg [1]: 65.0%
- % left, L-cysteine 20 mg [1]: 38.9%
- Peak Area, DHLA 20 mg [1]: 1809
- Peak Area, GSH 20 mg [1]: 2299
- Peak Area, L-cysteine 20 mg [1]: 1377
- % left, Blank [1]: 33.4%
- Peak Area, Blank [1]: 1183
- Peak Area ([2]; Blank sample, 0:00 h): 3539.1
- Peak Area ([2]; Blank sample, 0:15 h): 2707.4
- Peak Area ([2]; Blank sample, 0:30 h): 2620.7
- Peak Area ([2]; Blank sample, 0:45 h): 2342.2
- Peak Area ([2]; Blank sample, 1:00 h): 2278.1
- Peak Area ([2]; Blank sample, 1:30 h): 2130.7
- Peak Area ([2]; Blank sample, 1:45 h): 2104.9
- Peak Area ([2]; Blank sample, 2:00 h): 1894.9
- Peak Area ([2]; Blank sample, 2:15 h): 1851.7
- Peak Area ([2]; Blank sample, 2:30 h): 1790.9
- Peak Area ([2]; Blank sample, 2:45 h): 1694.9
- Peak Area ([2]; Blank sample, 3:00 h): 1573.5
- Peak Area ([2]; Blank sample, 3:15 h): 1531.6
- Peak Area ([2]; Blank sample, 3:30 h): 1370.4
- Peak Area ([2]; Blank sample, 3:45 h): 1361.3
- Peak Area ([2]; Blank sample, 4:00 h): 1182.9
- %-residual anthocyanosides (% left) ([2]; Blank): 33%
- Peak Area [2, 3]: 3473.6
- Peak Area [2, 4]: 3108.1
- Peak Area [2, 5]: 2964.3
- Peak Area [2, 6]: 3015.3
- Peak Area [2, 7]: 2958.5
- Peak Area [2, 8]: 2688.8
- Peak Area [2, 9]: 2777.8
- Peak Area [2, 10]: 2579.6
- Peak Area [2, 11]: 2447.1
- Peak Area [2, 12]: 2534.7
- Peak Area [2, 13]: 2366.8
- Peak Area [2, 14]: 2274.2
- Peak Area [2, 15]: 2298.9
- Peak Area [2, 16]: 2199.7
- %-residual anthocyanosides (% left) ([2]; GSH-protected): 66%
SMILES: C[C@@H]1O[C@@H](OC[C@H]2O[C@@H](Oc3cc4c(O)cc(O)cc4[o+]c3-c3ccc(O)c(O)c3)[C@H](O)[C@@H](O)[C@@H]2O)[C@H](O)[C@H](O)[C@H]1O [Cn-3-O-Rut, Cyanidin-3-O-rutinoside]

- Peak Area, Fresh solution [1]: 5207
- % left, DHLA 20 mg [1]: 51.7%
- % left, GSH 20 mg [1]: 53.1%
- % left, L-cysteine 20 mg [1]: 38.0%
- Peak Area, DHLA 20 mg [1]: 2692
- Peak Area, GSH 20 mg [1]: 2764
- Peak Area, L-cysteine 20 mg [1]: 1975
- % left, Blank [1]: 12.0%
- Peak Area, Blank [1]: 626.2
- Peak Area ([2]; Blank sample, 0:00 h): 5207.5
- Peak Area ([2]; Blank sample, 0:15 h): 3604.2
- Peak Area ([2]; Blank sample, 0:30 h): 3366.5
- Peak Area ([2]; Blank sample, 0:45 h): 2787.9
- Peak Area ([2]; Blank sample, 1:00 h): 2660.6
- Peak Area ([2]; Blank sample, 1:30 h): 2299.5
- Peak Area ([2]; Blank sample, 1:45 h): 2291.6
- Peak Area ([2]; Blank sample, 2:00 h): 1825.7
- Peak Area ([2]; Blank sample, 2:15 h): 1747.2
- Peak Area ([2]; Blank sample, 2:30 h): 1552.5
- Peak Area ([2]; Blank sample, 2:45 h): 1442.9
- Peak Area ([2]; Blank sample, 3:00 h): 1235.4
- Peak Area ([2]; Blank sample, 3:15 h): 1166.0
- Peak Area ([2]; Blank sample, 3:30 h): 907.2
- Peak Area ([2]; Blank sample, 3:45 h): 891.1
- Peak Area ([2]; Blank sample, 4:00 h): 626.2
- %-residual anthocyanosides (% left) ([2]; Blank): 12%
- Peak Area [2, 3]: 5201.3
- Peak Area [2, 4]: 4584.2
- Peak Area [2, 5]: 4275.7
- Peak Area [2, 6]: 4273.1
- Peak Area [2, 7]: 4168.7
- Peak Area [2, 8]: 3749.9
- Peak Area [2, 9]: 3813.3
- Peak Area [2, 10]: 3544.9
- Peak Area [2, 11]: 3199.5
- Peak Area [2, 12]: 3327.2
- Peak Area [2, 13]: 2993.9
- Peak Area [2, 14]: 2761.0
- Peak Area [2, 15]: 2763.6
- Peak Area [2, 16]: 2579.8
- %-residual anthocyanosides (% left) ([2]; GSH-protected): 53%
SMILES: C[C@@H]1O[C@@H](OC[C@H]2O[C@@H](Oc3cc4c(O)cc(O)cc4[o+]c3-c3cc(O)c(O)c(O)c3)[C@H](O)[C@@H](O)[C@@H]2O)[C@H](O)[C@H](O)[C@H]1O [Dp-3-O-Rut, Delphinidin-3-O-rutinoside]
